Experimental data reported in the NIST ThermoML archive (doi:10.1021/je0302001).

Assay: mn = molality of the nth substance listed, in mol/kg
Details: 101.3 kPa, Liquid; for viscosity: Capillary tube (Ostwald / Ubbelohde) method

O=[N+]([O-])[O-].O=[N+]([O-])[O-].[Zn+2] [nitric acid, zinc salt] + O
Details | mass density [kg/m3] | speed of sound [m/s] | viscosity [mPa·s]
303.15 K, m1 = 2.145 | – | 1622.9 | –
303.15 K, m1 = 2.29 | – | 1632.6 | –
303.15 K, m1 = 2.292 | – | 1630.1 | –
303.15 K, m1 = 2.344 | – | 1634.7 | –
303.15 K, m1 = 2.91 | – | 1664 | –
303.15 K, m1 = 3.472 | – | 1691.2 | –
303.15 K, m1 = 4.075 | – | 1714.1 | –
303.15 K, m1 = 4.817 | – | 1739.4 | –
303.15 K, m1 = 5.224 | – | 1748.1 | –
303.15 K, m1 = 5.797 | – | 1760.4 | –
303.15 K, m1 = 6.34 | – | 1768.2 | –
303.15 K, m1 = 6.89 | – | 1772.4 | –
303.15 K, m1 = 7.349 | – | 1774 | –
303.2 K, m1 = 6.89 | 1705.2 | – | –
303.25 K, m1 = 5.8 | 1629.7 | – | –
303.65 K, m1 = 0.6111 | 1084.7 | – | –
303.65 K, m1 = 1.906 | 1255.3 | – | –
303.7 K, m1 = 0.3388 | 1045.4 | – | –
303.75 K, m1 = 1.113 | 1154 | – | –
303.75 K, m1 = 1.258 | 1173.4 | – | –
303.75 K, m1 = 4.075 | 1486.4 | – | –
303.85 K, m1 = 4.817 | 1551.9 | – | –
303.95 K, m1 = 2.29 | 1300.6 | – | –
304 K, m1 = 3.472 | 1428.2 | – | –
304.15 K, m1 = 5.224 | 1584.8 | – | –
304.2 K, m1 = 7.349 | 1732.6 | – | –
304.3 K, m1 = 1.551 | 1210.3 | – | –
304.3 K, m1 = 2.344 | 1306.7 | – | –
304.35 K, m1 = 0.6405 | 1088.5 | – | –
304.45 K, m1 = 2.292 | 1300.6 | – | –
304.85 K, m1 = 0.1329 | 1014.5 | – | –
304.85 K, m1 = 2.91 | 1369.1 | – | –
304.85 K, m1 = 6.89 | 1703.4 | – | –
305.1 K, m1 = 5.8 | 1627.9 | – | –
305.4 K, m1 = 2.145 | 1282.8 | – | –
305.45 K, m1 = 6.34 | 1666.3 | – | –
305.65 K, m1 = 0.0875 | 1007.5 | – | –
305.65 K, m1 = 4.075 | 1484.9 | – | –
305.7 K, m1 = 1.906 | 1254.1 | – | –
306.1 K, m1 = 1.258 | 1172 | – | –
306.15 K, m1 = 2.29 | 1299.2 | – | –
306.25 K, m1 = 0.2466 | 1031 | – | –
306.25 K, m1 = 1.113 | 1152.7 | – | –
306.3 K, m1 = 2.344 | 1305.3 | – | –
306.35 K, m1 = 0.6111 | 1083.6 | – | –
306.35 K, m1 = 2.292 | 1299.4 | – | –
306.55 K, m1 = 1.551 | 1209.4 | – | –
306.6 K, m1 = 0.3388 | 1044.3 | – | –
306.75 K, m1 = 2.91 | 1367.8 | – | –
307.05 K, m1 = 0.6405 | 1087.4 | – | –
307.35 K, m1 = 2.145 | 1281.5 | – | –
307.5 K, m1 = 4.817 | 1548.6 | – | –
307.55 K, m1 = 4.075 | 1483.4 | – | –
307.55 K, m1 = 7.349 | 1729.2 | – | –
307.75 K, m1 = 3.472 | 1425.1 | – | –
307.75 K, m1 = 5.224 | 1581.5 | – | –
307.85 K, m1 = 0.1329 | 1013.4 | – | –
307.9 K, m1 = 1.906 | 1252.7 | – | –
308.15 K, m1 = 0.0875 | – | 1525.6 | –
308.15 K, m1 = 0.1329 | – | 1523.4 | 0.76
308.15 K, m1 = 0.2466 | – | 1527.9 | 0.787
308.15 K, m1 = 0.3388 | – | 1532.5 | 0.809
308.15 K, m1 = 0.6111 | – | 1543.7 | 0.884
308.15 K, m1 = 0.6405 | – | 1544.7 | 0.892
308.15 K, m1 = 1.113 | – | 1566.6 | 1.044
308.15 K, m1 = 1.258 | – | 1576.6 | 1.107
308.15 K, m1 = 1.551 | – | 1592.5 | 1.216
308.15 K, m1 = 1.906 | – | 1612.5 | 1.405
308.15 K, m1 = 2.145 | – | 1624.2 | 1.548
308.15 K, m1 = 2.29 | – | 1632.3 | 1.622
308.15 K, m1 = 2.292 | – | 1630.7 | –
308.15 K, m1 = 2.344 | – | 1635 | 1.645
308.15 K, m1 = 2.91 | – | 1662.2 | 2.035
308.15 K, m1 = 3.472 | – | 1687 | 2.554
308.15 K, m1 = 4.075 | – | – | 3.149
308.15 K, m1 = 4.817 | – | – | 4.24
308.15 K, m1 = 5.224 | – | – | 4.878
308.15 K, m1 = 5.797 | – | – | 6.183
308.15 K, m1 = 6.34 | – | – | 7.469
308.15 K, m1 = 6.89 | – | – | 9.274
308.15 K, m1 = 7.349 | – | – | 10.94
